One experiment concerns proApelin processing. Put plainly: proApelin processing in transfected cells with PC inhibitors (immunoblot). Type of experiment: cell-based, human. The settings on record: cell transfection experiments, coexpression with apelin. The text has this: FIG. 2: Human apelin cDNA encodes a protein of 77 amino acid residues. Newly synthesized apelin is a preproprotein that is proteolytically processed in order to generate mature 36, 17 and 13 amino acid forms. We cloned human apelin into pIRES2-eGFP vector adding a V5 tag in C-terminus of the apelin sequence. […] To identify the PCs involved in apelin processing, apelin and each of the PCs were transiently co-expressed in LoVo cells, a furin-deficient cell line. Supernatants were collected 24 hours after transfection and analyzed for proapelin processing by immunoblotting using a V5 antibody. As illustrated in (a), analyses of media derived from LoVo cells cotransfected with vector encoding proapelin and control vector show a band with an apparent molecular mass of 8-9 kDa, corresponding to the intact apelin precursor. […] FIG. 3: […]

Experiment [1] relates to HUVEC. Put plainly: Endothelial cell migration (motility) induced by VEGF. In kind it is cell-based, human.
Experiment [2] in a line: Cutaneous reverse passive Arthus reactions assay. In kind it is in vivo.
In experiment [3] the test system is chick chorioallantoic membrane. The experiment in a line: Chick chorioallantoic membrane (CAM) assay. In kind it is in vivo.
Experiment [4] concerns human platelets. The experiment in a line: Thrombin-induced aggregation of washed human platelets. Conditions: for effect on the apelin inhibitory effect on thrombin-induced aggregation: human platelets, peptide together with apelin; for thrombin-induced platelet aggregation: human platelets preincubated with peptide alone. Type of experiment: cell-based. The protocol: FIG. 5: APJ antagonist […]) and unprocessed double mutant apelin-36 (apelin-DM) confirm the role of APJ in the inhibition of platelet function by apelin. Thrombin-induced aggregation of human platelets preincubated with PBS, as control (black bar); […] (100 nM; white bar); apelin (10 nM; grey bar) or […] (100 nM) plus apelin (10 nM) (dashed bar). Venous blood was collected from healthy donors on 10% (v/v) trisodium citrate (3.8%). Written informed consent was obtained from all the donors. Platelet-rich plasma (PRP) was obtained by centrifugation (120 g; 15 minutes; 20° C.) and platelets were isolated by differential centrifugation as previously described^15. The platelet pellet was resuspended in modified Tyrode-HEPES buffer without CaCl2 (137 mM NaCl, 2 mM KCl, 0.3 mM NaH2PO4, 5.5 mM glucose, 5 mM Hepes, 12 mM NaHCO3, pH 7.3). Platelet aggregation was monitored by measuring light transmission through the stirred suspension of washed platelets (3×10^8/mL) at 37° C. in presence of 1 mM CaCl2 using a Chronolog aggregometer (Chrono-log Corporation, USA). When mentioned, platelets were first incubated with apelin-13, apelin-36, apelin-DM or […] for 3 minutes at 37° C. Platelet aggregation was triggered by adding collagen, thrombin, or ADP. Representative traces for aggregation were obtained from at least three independent experiments. Results are expressed as the percent change in light transmission with respect to the blank (buffer without platelets), set at 100%.

The subject of experiment [5] is HUVEC. The experiment in a line: HUVEC proliferation induced by VEGF (Cell Titer96 assay). In kind it is cell-based, human. The protocol: FIG. 9: HUVEC proliferation and motility. HUVEC were serum deprived overnight and then treated for 24 h with or without VEGF in the presence of apelin wild-type (10 ng/ml) and/or apelin mut-36 (10 ng/ml). Cell proliferation was assessed using Cell Titer96 non-radioactive cell proliferation assay.

The next experiment concerns wild-type mice. Put plainly: Tail bleeding time after intravenous injection. In kind it is in vivo, mouse. Conditions: for effect on the apelin-induced increase in bleeding time: peptide together with apelin; for tail bleeding time: peptide alone. The text has this: FIG. 7: APJ antagonist […]) and unprocessed double mutant apelin-36 (apelin-DM) confirm the role of APJ in the inhibition of platelet function by apelin. Tail bleeding time in wild-type mice receiving an intravenous injection of PBS, as control (●); […] (500 nmol/kg; ▪); apelin (50 nmol/kg; ◯) or […] (500 nmol/kg) plus apelin (50 nmol/kg) (□). FIG. 8: APJ antagonist […]) and unprocessed double mutant apelin-36 (apelin-DM) confirm the role of APJ in the inhibition of platelet function by apelin. Tail bleeding time in wild-type mice receiving an intravenous injection of PBS, as control (●); apelin (50 nmol/kg; ◯); apelin-36 (500 nmol/kg; Δ); apelin-DM (500 nmol/kg; ▪), apelin-36 plus apelin (▾) or apelin-DM plus apelin (□). Complete blood counts and haematocrit were determined with an automatic cell counter, using the standard parameters for mice. Bleeding time assays were performed on overnight fasted animals, after injection of PBS, apelin-13, apelin-36, apelin-DM or […] into the retro-orbital plexus, by cutting off the tip of the tail (3 mm from the tip) and immediately immersing it in saline at 37° C. We then recorded the time taken for the bleeding to stop.

A further experiment deals with mouse aortic ring. Put plainly: Mouse aortic ring assay.
For experiment [6], the system named is human platelets. The experiment in a line: Intracellular Ca2+ mobilization in thrombin-stimulated human platelets (Fura-2). In kind it is cell-based. Conditions: for effect on the apelin inhibitory effect on thrombin-induced Ca2+ mobilisation: human platelets, peptide together with apelin; for thrombin-induced Ca2+ mobilisation: human platelets preincubated with peptide alone. How it is done:
FIG. 6: APJ antagonist […]) and unprocessed double mutant apelin-36 (apelin-DM) confirm the role of APJ in the inhibition of platelet function by apelin. Intracellular Ca^2+ mobilization ([Ca^2+]i) in human platelets was monitored in real-time using a fluorescence spectrophotometer. Human platelets, loaded with Fura-2-AM were preincubated 3 minutes with PBS, as control (black bar); […] (100 nM; white bar); apelin (10 nM; grey bar) or […] (100 nM) plus apelin (10 nM) (dashed bar) before stimulation by thrombin (100 mU/mL). […] Human platelets were loaded with Fura-2 by incubation with 2 μM Fura-2-AM for 45 minutes at 37° C. Cells were then collected by centrifugation at 350 g for 15 min and resuspended in HEPES-buffered saline (145 mM NaCl, 10 mM HEPES, 10 mM D-glucose, 5 mM KCl, 1 mM MgSO4, pH 7.4), and supplemented with 0.1% (w/v) BSA. Fluorescence was recorded from 2 mL aliquots of magnetically stirred cell suspensions at 37° C. using a fluorescence spectrophotometer (Varian Ltd., Madrid, Spain) with excitation wavelengths of 340 and 380 nm and emission at 505 nm. Changes in [Ca^2+]i were monitored using the Fura-2 340/380 fluorescence ratio and calibrated according to the method of Grynkiewicz et al.^19. Ca^2+ release by thrombin was estimated using the integral of the rise in [Ca^2+]i for 2.5 minutes after its addition, taking a sample every second, and was expressed in nM as previously described^20.
A general note: A change in cytosolic calcium serves as a functional read-out for many receptors and channels.

Entries after “also recorded” stand apart in the source; their conditions may differ.

For “alpha1-PDX: Furin inhibitor serpin alpha1-antitrypsin, furin-motif variant of α1-antitrypsin”, the “processing of proApelin” value in the experiment with proApelin processing is given as “inhibited”.

As for ppPC5: PC inhibitor, prosegment proPC5, the “processing of proApelin” value with proApelin processing is “inhibited”.

Take “LVQPRGSRNGPGPWQGGSSKFSSQRPRLSHKGPMPF (Synthetic inhibitor of apelin) [Apelin-DM, unprocessed mutant of apelin; cleavage sites of proapelin (18RRKFRR) replaced by 18SSKFSS]”: the “endothelial cell migration induced by VEGF” value in the experiment with HUVEC [1] is reported as “inhibits”. Further, in [2], the tissue inflammation entry is given as “inhibited these processes”. Further, the “formation of new vessels (neo-vascularisation)” value (in [3]; in the experiment with mouse aortic ring) was “prevents the neo-vascularisation” in each case. In the experiment on human platelets [4], the “effect on the apelin inhibitory effect on thrombin-induced aggregation” value is on record as “abolished the apelin inhibitory effect”. Besides, the “endothelial cell proliferation induced by VEGF” value in the experiment with HUVEC [5] is reported as “inhibits”. Moreover, the “effect on the apelin-induced increase in bleeding time” value in the experiment with wild-type mice was “inhibited”. In addition, the “effect on the apelin inhibitory effect on thrombin-induced Ca2+ mobilisation” value with human platelets [6] is given as “abolished the apelin inhibitory effect”.

For the substance apelin, the tissue inflammation entry in experiment [2] is listed as “increased tissue inflammation”.

As for “Apelin-36: proApelin (Apelin-36), 36 amino acid cleavage product of preproapelin (LVQPRGSRNGPGPWQGGRRKFRRQRPRLSHKGPMPF; listed as Homo sapiens)”, the thrombin-induced platelet aggregation result in the experiment with human platelets [4] is recorded as “inhibited”. For the same substance, the tail bleeding time result in the experiment on wild-type mice is listed as “significant increase in bleeding time”. Also, in the experiment on human platelets [6], the “thrombin-induced Ca2+ mobilisation” value was “inhibited”.

Turning to apelin-13, the “formation of new vessels (neo-vascularisation)” value (in [3]; with mouse aortic ring) was “induced the formation of new vessels” in each case. The thrombin-induced platelet aggregation entry in the experiment with human platelets [4] was “inhibited”. Further, in the experiment on wild-type mice, the tail bleeding time entry is given as “significant increase in bleeding time”. Also, the “thrombin-induced Ca2+ mobilisation” value in the experiment with human platelets [6] is “inhibited”.

Turning to “F13A: APJ receptor antagonist apelin-13 (F13A)”, in the experiment on human platelets [4], the thrombin-induced platelet aggregation entry is on record as “no effects” and the “effect on the apelin inhibitory effect on thrombin-induced aggregation” value is given as “prevents the inhibitory effects of apelin alone; also recorded: abolished the apelin inhibitory effect”. Besides, in the experiment with wild-type mice, the tail bleeding time entry is recorded as “no effects” and the “effect on the apelin-induced increase in bleeding time” value is “prevents the inhibitory effects of apelin alone; also recorded: inhibited”. In addition, in the experiment on human platelets [6], the “thrombin-induced Ca2+ mobilisation” value was “no effects” and the “effect on the apelin inhibitory effect on thrombin-induced Ca2+ mobilisation” value is on record as “prevents the inhibitory effects of apelin alone; also recorded: abolished the apelin inhibitory effect”.

Regarding “ppFurin: Furin inhibitor, prosegment proFurin”, in the experiment on proApelin processing, the “processing of proApelin” value is given as “inhibited”.

The values above are taken from patent US9593153B2, “Modified apelin polypeptides” (INSERM (INSTITUT NATIONAL DE LA SANTE ET DE LA RECHERCHE …, priority 2012, dated 2017).
